Results: US20260216214A1, “ANALGESIC COMPOSITIONS, METHOD OF MANUFACTURE AND USES THEREOF” (University of Connecticut, priority 2022, published 2026)
Entries after “also recorded” stand apart in the source; their conditions may differ. Where a name gives a salt, the structure may show the parent alone.

Columns and labels:
[1] = tested on: MIA induced OA rats; assay: Paw withdrawal threshold with Von Frey filaments in MIA induced OA rats (Examples 1-2); format: in vivo, rat
Source text: Von Frey data typically refers to experimental data collected using the von Frey filaments or hairs, which are instruments commonly used in neuroscience and behavioral research to assess mechanical sensitivity or tactile allodynia (an increased sensitivity to touch, often associated with pain or discomfort) in animals, particularly rodents. The von Frey test involves applying calibrated filaments of varying forces to the skin of an animal, usually the hind paw of a rodent. The animal's response is overserved to determine its sensitivity to mechanical stimuli. The data collected during von Frey testing may include a) Threshold Response: The force or bending pressure at which the animal first responds to the filament. This is often referred to as the “withdrawal threshold” and is an indicator of the animal's sensitivity to touch; b) Response Frequency: The number of positive responses (e.g., paw withdrawal, licking, or shaking) to the application of the von Frey filaments. This information provides a measure of the intensity or frequency of the animal's response to the mechanical stimulus; and c) Response Latency: The time it takes for the animal to respond after the application of the von Frey filament. A shorter response latency may indicate increased sensitivity.
The injections were 50 μL each and the Bupivacaine HCL (1.5 mg/mL) was dissolved in 0.9% saline. […] FIG. 1 depicts the locations in the knee where the periarticular injections of only bupivacaine were administered.
Periarticular injections of local anesthetics into these specific locations can prolong the duration of analgesia compared to intra-articular injections into the knee joint. […]
FIG. 3 is a graph that depicts the change from the baseline pre-injury values of the animals versus time in days. […] FIG. 3 depicts the paw withdrawal threshold as measured using Von Frey filaments. in MIA induced OA rats.

[2] = tested on: female Sprague Dawley Rats injected with mono-iodoacetate to induce OA; assay: Paw withdrawal threshold with Electronic Von Frey in MIA induced OA rats (Examples 8-9); format: in vivo, rat
Protocol: This example was conducted to determine in-vivo pain response. […] Pain response was assessed using Von Frey filaments that measure mechanical allodynia. Paw withdrawal threshold was measured using Electronic Von Frey [IITC]. For example, female Sprague Dawley Rats were injected with 30 μL of mono-iodoacetate solution to induce OA. […] The results were compared to rodents with 2 injections of bupivacaine HCl in 0.9% saline (1.5 mg/ml) in those specific periarticular locations. […] FIG. 10 depicts electronic Von Frey measurements done with treatment groups using bupivacaine HCL periarticularly injected at 2 locations alone and periarticular injection of PEA nanoparticles with bupivacaine HCL at 2 locations.
This example was conducted to determine the effect of increasing the dosage of the local anesthetic as commonly 5 mg/mL bupivacaine is used clinically. […] For example, female Sprague Dawley Rats were injected with 30 μL of mono-iodoacetate solution (MIA) to induce OA.
Pain response was measured using Von Frey measurements. […] The PEA nanoparticles with high dose of bupivacaine HCL extended pain relief more than 4 weeks compared to a few hours in the high dose bupivacaine HCL alone group. […]

[3] = tested on: female Sprague Dawley Rats injected with mono-iodoacetate to induce OA; assay: Joint diameter (vernier caliper) as measure of joint inflammation in MIA induced OA rats; format: in vivo, rat; details: periarticular, bupivacaine HCl 1.5 mg/ml, 50 μL/location
Protocol: This example was conducted to determine in-vivo inflammation. […] The joint inflammation is assessed via vernier caliper measurements. For example, female Sprague Dawley Rats were injected with 30 μL of mono-iodoacetate solution to induce OA. […] The injections were done under X-ray guidance using a C-arm for increased precision. Inflammation was assessed using a vernier caliper at the knee joint. […] Vernier caliper measurements show reduced inflammation in the bupivacaine+PEA nanoparticles group compared to the bupivacaine HCL only group at day 3 and day 7. At day 7, the inflammation in the bupivacaine+PEA nanoparticles group is not different from the baseline. At day 3, the inflammation in the bupivacaine HCl only group is higher than the MIA group. Statistical tests were conducted using only one way ANOVA with Brown Forsythe and Welsh tests.
FIG. 9 is a graph depicting joint diameter upto 21 days. […] The treatment groups are high does of bupivacaine HCl at 1 location (N=4), periarticular PEA nanoparticles at 2 locations +high does bupivacaine HCL at 1 location (N=5) with control of MIA (3 mg; N=6). The treatment groups with PEA nanoparticles show anti-inflammatory effects for 3 weeks. Statistical tests were conducted using only one way ANOVA with Brown Forsythe and Welsh tests.

[4] = tested on: LPS activated macrophages; assay: Cytokine gene expression by RT-PCR in LPS activated bone marrow macrophages; format: cell-based; details: PEA 50 μM in DMSO, LPS 200 ng/ml, 24 hours; versus LPS alone
Protocol: Bone marrow macrophages were cultured for 24 hours, followed by treatment with lipopolysaccharides (LPS) from Escherichia coli O111:B4 (to activate macrophages) and the endocannabinoid molecule, dissolved in dimethyl sulfoxide (DMSO). After 24 hours of treatment, the cells are lysed, and the RNA collected. Gene expression is determined using RT-PCR. The expression of inflammatory cytokines such as Tumor Necrosis Factor Alpha (TNF-α), Interleukin-1-Beta […] and Interleukin-6 are used to determine the anti-inflammatory effect of the endocannabinoid solution. For example, macrophages were cultured for 24 hours and treated with LPS (200 ng/ml) and PEA (50 μM). After 24 hours, cells were lysed, and the RNA collected.
Bone marrow macrophages are cultured for 24 hours, followed by treatment with lipopolysaccharides (to activate macrophages) and the endocannabinoid dissolved in DMSO or endocannabinoid nanoparticle formulation at the same concentration. 24 hours after treatment, the cells were lysed, and the RNA collected. Gene expression is determined using RT-PCR. The expression of inflammatory cytokines such as Tumor Necrosis Factor Alpha (TNF-α), and Interleukin-1-Beta (IL1β) is used to determine the anti-inflammatory effect of the endocannabinoid solution.

Structure (SMILES) | duration of efficacy (analgesia) ([1]; intraarticular injection of same amount of bupivacaine HCL) [days] | duration of efficacy (analgesia) ([1]; periarticular injection at 4 locations, 50 μL each, 1.5 mg/mL in 0.9% saline) [days] | pain relief versus disease control (paw withdrawal threshold, change from baseline) ([1]; periarticular injections at 1, 2 or 4 locations) | duration of pain relief ([2]; bupivacaine 3 mg/ml, 50 μL at one location (superior lateral)) | hypoalgesic and analgesic efficacy on increasing the bupivacaine dose ([2]; bupivacaine increased from 1.5mg/ml to 3 mg/mL (0.15% to 0.3%), HCl) | joint diameter at day 3 [3] | gene expression of IL6 [4] | gene expression of ILβ [4] | gene expression of TNF-α [4]
CCCCN1CCCCC1C(=O)Nc1c(C)cccc1C (stereo not drawn) [bupivacaine HCL, bupivacaine HCl] | 3 | 17 | prolonged pain relief compared to the disease control | a few hours | significant reduction in the hypoalgesic and analgesic effect; also recorded: significantly reduced the efficacy | significantly increased joint diameter or inflammation compared to the injection of MIA alone |  |  | 
CCCCCCCCCCCCCCCC(=O)NCCO [PEA, palmitoylethanolamide] |  |  |  |  |  |  | significantly less than in the LPS alone control group | significantly less than in the LPS alone control group | significantly less than in the LPS alone control group
